Legend:
ULK1 = target: T1, ULK1 (Homo sapiens, UniProt O75385); assay: Inhibition of ULK1 protein activity (ADP-Glo method); type: biochemical; conditions: ULK1 enzyme, ATP and MBP substrate, 60 min room temperature
T1 construct: purchased Promega V3521
T1 sequence (O75385 1-649 limits assumed): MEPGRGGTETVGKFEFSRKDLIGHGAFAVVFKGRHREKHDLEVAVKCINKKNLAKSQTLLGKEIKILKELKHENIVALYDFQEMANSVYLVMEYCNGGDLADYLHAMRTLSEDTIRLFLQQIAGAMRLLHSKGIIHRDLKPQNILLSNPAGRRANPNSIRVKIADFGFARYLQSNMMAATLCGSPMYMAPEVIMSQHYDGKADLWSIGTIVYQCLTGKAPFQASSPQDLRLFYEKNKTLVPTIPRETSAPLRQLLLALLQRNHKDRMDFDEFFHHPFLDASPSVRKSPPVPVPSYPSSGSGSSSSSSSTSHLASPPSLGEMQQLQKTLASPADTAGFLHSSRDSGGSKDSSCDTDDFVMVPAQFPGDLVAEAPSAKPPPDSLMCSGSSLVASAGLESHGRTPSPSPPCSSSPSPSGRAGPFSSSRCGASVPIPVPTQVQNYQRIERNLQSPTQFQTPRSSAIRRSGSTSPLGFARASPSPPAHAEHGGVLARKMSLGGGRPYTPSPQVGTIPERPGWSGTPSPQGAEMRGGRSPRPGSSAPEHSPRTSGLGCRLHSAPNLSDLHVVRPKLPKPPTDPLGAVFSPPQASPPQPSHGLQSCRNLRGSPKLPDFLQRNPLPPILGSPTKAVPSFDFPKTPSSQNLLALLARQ
Method: In this experiment, the inhibitory effect of a compound on the phosphorylation function of ULK1 was detected by ADP-Glo method. The inhibitory effect of the compound of the present disclosure on the ULK1 target was evaluated based on IC50.
Compound formulation: Using an ECHO (Beckman, ECHO650), the compound was serially diluted 3-fold in DMSO in a 384-well plate (PE, 6007290). A total of 10 concentration points were set, with the maximum concentration of the compound being 10 μM, and 50 nL per well. Positive control wells and negative control wells were added with 50 nL DMSO, respectively.
Reaction process: A 32 nM of ULK1 (Promega, V3521) solution was formulated, and 2.5 μL/well was transferred to the compound test wells and the negative control wells (NC). 2.5 μL/well of 1× Assay buffer was added to the positive control wells (PC). A mixed solution of 100 μM of ATP and 1.86 μM of MBP was formulated, and 2.5 μL/well was transferred to the reaction plate. After centrifugation, the reaction was initiated and incubated at room temperature for 60 min. After the reaction was completed, 5 μL/well of ADP-Glo Reagent (Promega, V9102) was added to the reaction plate. After centrifugation, the reaction was incubated at room temperature for 40 minutes. Finally, 10 μL/well of Kinase Detection Buffer was added, followed by centrifugation and incubation at room temperature for 30 min. The chemiluminescence value was read using Envision (PE, Envision2105).
Assay buffer: a reaction buffer; and Kinase Detection buffer: a detection buffer, both were taken from the ADP-Glodetection kit, purchased from Promega, model V9102. 3. Data analysis
The inhibition ratio of a compound on ULK1 activity was calculated using the following formula:
Inhibition ratio=(sample signal value−negative control signal value)/(positive control signal value−negative control signal value)×100%. The dose-effect curve was fitted using the log(inhibitor) vs. response -Variable slope of the analysis software GraphPad Prism 8, thereby affording the IC50 value of each compound for enzyme activity.

[1] = test system: ATG13 phosphorylation level in MIA PaCa-2 cells; assay: Inhibition of ATG13 phosphorylation level in MIA PaCa-2 cells (pATG13 ELISA); type: cell-based; conditions: Homo sapiens, Torin1 100 nM, 24 h incubation, Phospho-Atg13 (ser355)
Method: The inhibitory effect of the compound of the present disclosure on ULK1 was evaluated by testing the inhibitory effect of the compound of the present disclosure on ATG13 phosphorylation level in MIA PaCa-2 cells.
MIA PaCa-2 cells (ATCC, CRM-CRL-1420) were cultured in a complete medium, namely, a DMEM medium (Gibco, 11965-092) containing 10% fetal bovine serum (Corning, 35-081-CV), 2.5% horse serum (Gibco, 16050-122) and 1% double antibody (Gibco, 15140-122). The experiments were performed according to the requirements of the kit (Cell Signaling Technology, 17208C).
Cell plating: MIA PaCa-2 at 80% growth confluence were digested, diluted with the complete medium, and added to a 96-well cell culture plate (Costar, 3596) at 20,000 cells per well, with a volume of 90 μL.
Compound incubation: 5 μL of Torin1 and 5 μL of a serially diluted compound were added to each well so that the highest concentration of the compound in the reaction system was 10 μM. 5-fold serial dilution with 8 concentrations was performed, and the final concentration of Torin1 was 100 nM. The DMSO content in the system was 0.1%. The reaction plate was placed in an incubator at 37° C. in 5% CO2, and was incubated for 24 h. 10 μL of Torin1 was added to the negative control wells (NC) to a final concentration of 100 nM, with a DMSO content of 0.1%.
Reaction detection: After the incubation was completed, the cell plate was washed with a pre-cooled DPBS (Corning, 21-031-CVC) to wash away the compound and medium. 50 μL of pre-cooled cell lysis solution was added to each well, incubated on ice for 10 min. The cell plate was centrifuged, and the supernatant was transferred to an ELISA reaction plate. Simultaneously, 50 μL of Phospho-Atg13 (ser355) rabbit detection antibody was added, followed by incubation at room temperature under shaking for 60 min. After the incubation was completed, the reaction plate was washed with a washing solution for 4 times. 100 μL of TMB substrate was added for color development reaction, followed by incubation under shaded conditions with shaking for 15 min. Finally, 100 μL of stop solution was added to each well. The reaction was terminated by shaking for 10 s, and the absorbance value at 450 nm and 560 nm were collected within 10 min using Envision (Perkin Elmer, EnVision 2105).
The inhibition ratio was calculated by subtracting the absorbance value at […] from the absorbance value at 450 nm for each well. The inhibition ratio formula is as follows: inhibition ratio=(sample signal value−negative control signal value)/(positive control signal value -negative control signal value)×100%.
The dose-effect curve was fitted using the log (inhibitor) vs. response -Variable slope of Graphpad Prism8, thereby affording the IC50 value of each compound for inhibiting ATG13 phosphorylation level.

| IC50 (ULK1) [nM] | IC50 [1] [nM] | Structure (SMILES) |
| --- | --- | --- |
| 100 to 1000 |  | Cc1ccn(C2CN(c3nc(Nc4ccc(N5CCN(C)CC5)cc4C4CC4)ncc3C(F)(F)F)C2)n1 [Example 2] |
| 100 to 1000 |  | CN1CCN(c2ccc(Nc3ncc(C(F)(F)F)c(N4CCN(C(=O)C5CCC5)CC4)n3)c(C3CC3)c2)CC1 [Example 3] |
| 100 to 1000 |  | CN1CCN(c2ccc(Nc3ncc(C(F)(F)F)c(N4CCC(NC(=O)C5CCC5)CC4)n3)c(C3CC3)c2)CC1 [Example 4] |
| > 1000 |  | CN1CCN(c2ccc(Nc3ncc(C(F)(F)F)c(N4CCC(N5CCCC5=O)CC4)n3)c(C3CC3)c2)CC1 [Example 6] |
| 100 to 1000 |  | CN1CCN(c2ccc(Nc3ncc(C(F)(F)F)c(NC(=O)C4CCC4)n3)c(C3CC3)c2)CC1 [Example 7] |
| > 1000 |  | CN1CCN(c2ccc(Nc3ncc(C(F)(F)F)c(N4CCC(N5CCCCC5=O)CC4)n3)c(C3CC3)c2)CC1 [Example 8] |
| 100 to 1000 |  | CN1CCN(c2ccc(Nc3ncc(C(F)(F)F)c(N4CCCN(C(=O)C5CCC5)CC4)n3)c(C3CC3)c2)CC1 [Example 9] |
| 100 to 1000 |  | CN1CCN(c2ccc(Nc3ncc(C(F)(F)F)c(NC4CCN(C)C(=O)C4)n3)c(C3CC3)c2)CC1 (stereo not shown) [Example 10] |
| 100 to 1000 |  | CN1CCN(c2ccc(Nc3ncc(C(F)(F)F)c(N[C@H]4CCN(C)C4=O)n3)c(C3CC3)c2)CC1 [Example 11] |
| 100 to 1000 |  | CN1CCN(c2ccc(Nc3ncc(C(F)(F)F)c(N4CCC(CN5CCCCC5=O)C4)n3)c(C3CC3)c2)CC1 (stereo not shown) [Example 12] |
| 100 to 1000 |  | Cc1ccnn1C1CCN(c2nc(Nc3ccc(N4CCN(C)CC4)cc3C3CC3)ncc2C(F)(F)F)CC1 [Example 13] |
| > 1000 |  | CN1CCN(c2nc(Nc3cccc(CN4CCOCC4)c3)ncc2C(F)(F)F)CC1=O [Example 16] |
| < 100 |  | CN1CCN(c2ccc(Nc3ncc(C(F)(F)F)c(OC4CCN(C)C(=O)C4)n3)c(C3CC3)c2)CC1 (stereo not shown) [Example 17] |
| 100 to 1000 |  | CN1CCN(c2ccc(Nc3ncc(C(F)(F)F)c(OC4CCN(C(=O)C5CCC5)CC4)n3)c(C3CC3)c2)CC1 [Example 18] |
| 100 to 1000 |  | CN1CCN(c2nc(Nc3cccc(Nc4ccc(N)cc4)c3)ncc2C(F)(F)F)CC1=O [Example 21] |
| > 1000 |  | CN1CCN(c2nc(Nc3cccc(NC(=O)N4CCCC4)c3)ncc2C(F)(F)F)CC1=O [Example 22] |
| < 100 |  | CN1CCC2(CCN(c3nc(Nc4ccc(N5CCOCC5)cc4)ncc3C(F)(F)F)CC2)C1 [Example 23] |
| < 100 | 100 to 1000 | CN1CCN(c2ccc(Nc3ncc(C(F)(F)F)c(N4CC5(CCN(C)C5)C4)n3)c(C3CC3)c2)CC1 [Example 25] |

| IC50 (ULK1) [nM] | IC50 [1] [nM] | Structure (SMILES) |
| --- | --- | --- |
| 100 to 1000 |  | CN1CCN(c2ccc(Nc3ncc(C(F)(F)F)c(CCNC(=O)C4CCC4)n3)c(C3CC3)c2)CC1 [Example 27] |
| 100 to 1000 |  | CN1CCN(c2ccc(Nc3ncc(C(F)(F)F)c(CCN4CCCCC4=O)n3)c(C3CC3)c2)CC1 [Example 28] |
| < 100 |  | CN1CCC(n2cc(-c3nc(Nc4ccc(N5CCN(C)CC5)cc4C4CC4)ncc3C(F)(F)F)cn2)CC1 [Example 33] |
| 100 to 1000 |  | CN1CCC(COc2ccc(Nc3ncc(C(F)(F)F)c(OCCCN4CCCCC4=O)n3)c(C3CC3)c2)CC1 [Example 34] |
| < 100 |  | CN1CCN(c2ccc(Nc3ncc(C(F)(F)F)c(N4CCC5(CCNC5=O)CC4)n3)c(C3CC3)c2)CC1 [Example 35] |
| > 1000 |  | CN1CCN(c2ccc(Nc3ncc(C(F)(F)F)c(N4CCC5(CC4)CN(C)C5)n3)c(C3CC3)c2)CC1 [Example 36] |
| < 100 |  | CN1CCN(c2ccc(Nc3ncc(C(F)(F)F)c(N4CCC5(CN(C)C5)C4)n3)c(C3CC3)c2)CC1 [Example 38] |
| < 100 |  | CN1CCN(c2ccc(Nc3ncc(C(F)(F)F)c(N4C5CCC4C(=O)N(C)C5)n3)c(C3CC3)c2)CC1 (stereo not shown) [Example 39] |
| < 100 |  | Cc1ccn(C2CCN(c3nc(Nc4ccc(N5CCN(C)CC5)cc4C4CC4)ncc3C(F)(F)F)C2)n1 (stereo not shown) [Example 41] |
| > 1000 |  | CN1CCN(c2ccc(Nc3ncc(C(F)(F)F)c(COCCN4CCCCC4=O)n3)c(C3CC3)c2)CC1 [Example 42] |
| > 1000 |  | CC(=O)Nc1ccc(Nc2cccc(Nc3ncc(C(F)(F)F)c(N4CCN(C)C(=O)C4)n3)c2)cc1 [Example 43] |
| < 100 |  | CN1CCN(c2ccc(Nc3ncc(C(F)(F)F)c(NCCCc4ccccc4C#N)n3)c(C3CC3)c2)CC1 [Example 44] |
| 100 to 1000 |  | CN1CCN(c2ccc(Nc3ncc(C(F)(F)F)c(N4CCN(C5CCCNC5)C(=O)C4)n3)c(C3CC3)c2)CC1 (stereo not shown) [Example 45] |
| < 100 |  | CN1CC[C@@H](Oc2ccc(Nc3ncc(C(F)(F)F)c(OCCCN4CCCCC4=O)n3)c(C3CC3)c2)C1 [Example 46] |
| < 100 |  | CN1CCN(c2ccc(Nc3ncc(C(F)(F)F)c(OCCCC(=O)N4CCOCC4)n3)c(C3CC3)c2)CC1 [Example 47] |
| < 100 |  | CN1CCN(c2ccc(Nc3ncc(C(F)(F)F)c(N4CC5(CCN(C)CC5)C4)n3)c(C3CC3)c2)CC1 [Example 48] |
| 100 to 1000 |  | CN1CCN(c2ccc(Nc3ncc(C(F)(F)F)c(N4CC5(CCCN(C)C5)C4)n3)c(C3CC3)c2)CC1 [Example 50] |
| < 100 |  | CN1CCN(c2ccc(Nc3ncc(C(F)(F)F)c(NC4CCC(N5CCCC5=O)CC4)n3)c(C3CC3)c2)CC1 (stereo not shown) [Example 52] |
